Earlier results in patent publication US10029019B1, “Method for mitigating osteoporosis using metallic gold cluster molecules” (priority 2017, dated 2018).

What was measured:
[1] = system: RANKL-induced NF-κβ activation; conditions: RAW 264.7 monocytes during osteoclast differentiation
BMMs = conditions: up to 200 μM in BMMs in vitro

Question: For O=C(/C=C/c1ccc(O)c(O)c1)OCCc1ccccc1 [Caffeic Acid Phenethyl Ester (CAPE), Caffeic Acid Phenethyl Ester], which “RANKL-induced NF-κβ activation” value [1] is on record?
Answer: inhibit

Question: Which “formation of RAW264.7 precursor cells into osteoclasts” value (RAW264.7 cells) does the source give for O=C1c2c(O)cccc2C([C@@H]2O[C@H](CO)[C@@H](O)[C@H](O)[C@H]2O)c2cc(CO)cc(O)c21 (stereo partly shown) [Aloin] here?
Answer: prevent osteoclast differentiation

Question: For [Cl][La]([Cl])[Cl] [Lanthianum Chloride], which “reduction of gene expression that leads towards osteoclastic differentiation” value (BMMs) is on record?
Answer: 50%

Question: Which “formation of RAW264.7 precursor cells into osteoclasts” value (RAW264.7 cells) does the source give for [HH] [Hydrogen molecules] here?
Answer: inhibit
